Measured values as given in patent publication US9067949B2, “Benzofuro[3,2-c] pyridines and related analogs as serotonin sub-type 6 (5-HT6) modulators for the treatment of obesity, metabolic syndrome, cognition and schizophrenia” (Albany Molecular Research, Inc., priority 2011, dated 2015).

Target: human 5-HT6 receptor (Homo sapiens (Human), UniProt P50406)
Test: 5-HT6 radioligand binding assay (SPA format, [N-methyl-3H]-LSD)
Details: human 5-HT6 receptor membranes, 10 nM [N-methyl-3H]-LSD; Ki by Cheng-Prusoff; read-out: human 5HT6 Ki
Protocol: The relative affinities of the various compounds for the 5-HT6 receptor were measured in a radioligand binding assay, using a scintillation proximity assay (SPA) format.
For binding analysis vs. the human receptor, samples were incubated in 50 mM Tris-HCl, pH 7.5, 5 mM MgCl2, 1 mM EDTA (4% DMSO final) with 10 nM [N-methyl-^3H]-LSD (Perkin Elmer), 2.5 ng of human 5-HT6 receptor membranes (Millipore) and 50 μg SPA beads (PVT-PEI-WGA, GE Healthcare) per well in a final volume of 0.2 mL. […] Binding reactions were performed in PicoPlate96 microtiter plates (Perkin Elmer) by consecutively adding 50 μL of each competing compound or buffer, SPA beads, radioligand and 5-HT6 receptor membranes. After an overnight incubation at room temperature on a Nutator mixer, plates were centrifuged for 15 min at 1,500 rpm, followed by incubation in the dark for 10 min. […] Total binding control contained compound dilution buffer only; nonspecific binding is determined in the presence of 100 μM 5-hydroxytryptamine. Specific binding was determined by subtracting nonspecific binding from total binding.
All experiments were performed in duplicate using ten concentrations of competing ligand, with clozapine included as a control in every run. IC50 values were determined from specific binding data using XLfit4.1 curve fitting software from IDBS Ltd. The inhibition constant (Ki) was calculated using the Cheng-Prusoff equation: (Ki=IC50/(1+(L/KD)), where L=concentration of radioligand in the assay, and KD=affinity of the radioligand for the receptor.

Sequence of human 5-HT6 receptor (P50406 whole entry): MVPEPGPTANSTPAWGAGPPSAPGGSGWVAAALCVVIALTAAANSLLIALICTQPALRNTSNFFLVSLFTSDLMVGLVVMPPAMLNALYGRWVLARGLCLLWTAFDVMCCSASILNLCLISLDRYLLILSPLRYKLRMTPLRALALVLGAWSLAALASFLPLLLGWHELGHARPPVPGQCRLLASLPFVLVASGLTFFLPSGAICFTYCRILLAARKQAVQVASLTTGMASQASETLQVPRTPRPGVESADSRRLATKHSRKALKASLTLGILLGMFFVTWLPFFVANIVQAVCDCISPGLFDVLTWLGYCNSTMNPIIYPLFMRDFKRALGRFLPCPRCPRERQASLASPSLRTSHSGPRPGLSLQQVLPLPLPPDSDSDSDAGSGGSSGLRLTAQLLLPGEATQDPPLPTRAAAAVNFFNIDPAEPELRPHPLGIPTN

Row | SMILES | Ki [nM]
1 | CN1CCc2oc3c(Cl)cc(S(=O)(=O)c4ccccc4)cc3c2C1 [Example 116] | 1
2 | CCN1CCc2oc3c(Cl)cc(S(=O)(=O)c4ccccc4)cc3c2C1 [Example 117] | 1.2
3 | O=S(=O)(c1cncc(Cl)c1)c1cc(Cl)c2oc3c(c2c1)CNCC3 [Example 119] | 20
4 | O=S(=O)(c1cccnc1)c1cc(Cl)c2oc3c(c2c1)CNCC3 [Example 120] | 26
5 | O=S(=O)(c1cncc(C(F)(F)F)c1)c1cc(Cl)c2oc3c(c2c1)CNCC3 [Example 121] | 29
6 | O=S(=O)(c1cc(Cl)c2oc3c(c2c1)CNCC3)c1ccccc1CO [Example 122] | 5.4
7 | COc1cccc(S(=O)(=O)c2cc(Cl)c3oc4c(c3c2)CNCC4)c1 [Example 123] | 1.2
8 | Cn1ncc2cc(S(=O)(=O)c3cc(Cl)c4oc5c(c4c3)CNCC5)ccc21 [Example 124] | 37
9 | O=S(=O)(c1cc(F)cc(Cl)c1)c1cc(Cl)c2oc3c(c2c1)CNCC3 [Example 125] | 2.3
10 | O=S(=O)(c1ccc(C2CCO2)cc1)c1cc(Cl)c2oc3c(c2c1)CNCC3 (centres unmarked) [Example 126] | 10
11 | O=S(=O)(c1ccc(F)c(F)c1)c1cc(Cl)c2oc3c(c2c1)CNCC3 [Example 127] | 4
12 | O=S(=O)(c1ccc(F)cc1)c1cc(Cl)c2oc3c(c2c1)CNCC3 [Example 128] | 3
13 | O=S(=O)(c1cc(F)cc(F)c1)c1cc(Cl)c2oc3c(c2c1)CNCC3 [Example 129] | 9.9
14 | O=S(=O)(c1cc(Cl)cc(Cl)c1)c1cc(Cl)c2oc3c(c2c1)CNCC3 [Example 130] | 6
15 | O=S(=O)(c1ccc(C(O)C(F)(F)F)cc1)c1cc(Cl)c2oc3c(c2c1)CNCC3 (centres unmarked) [Example 131] | 7.6
16 | O=S(=O)(c1cccc(C(O)C(F)(F)F)c1)c1cc(Cl)c2oc3c(c2c1)CNCC3 (centres unmarked) [Example 132] | 3.3
17 | O=S(=O)(c1cc(Cl)c2oc3c(c2c1)CNCC3)c1csc2ccccc12 [Example 133] | 0.26
18 | O=S(=O)(c1ccc2sccc2c1)c1cc(Cl)c2oc3c(c2c1)CNCC3 [Example 134] | 0.55
19 | CC(O)c1ccccc1S(=O)(=O)c1cc(Cl)c2oc3c(c2c1)CNCC3 (centres unmarked) [Example 135] | 20
20 | CC(O)c1cccc(S(=O)(=O)c2cc(Cl)c3oc4c(c3c2)CNCC4)c1 (centres unmarked) [Example 136] | 3
21 | CC(O)c1ccc(S(=O)(=O)c2cc(Cl)c3oc4c(c3c2)CNCC4)cc1 (centres unmarked) [Example 137] | 5.6
22 | C[C@H](O)c1cccc(S(=O)(=O)c2cc(Cl)c3oc4c(c3c2)CNCC4)c1 [Example 138] | 5.1
23 | C[C@@H](O)c1cccc(S(=O)(=O)c2cc(Cl)c3oc4c(c3c2)CNCC4)c1 [Example 139] | 2.7
24 | C[C@H](O)c1ccc(S(=O)(=O)c2cc(Cl)c3oc4c(c3c2)CNCC4)cc1 [Example 140] | 16
25 | C[C@@H](O)c1ccc(S(=O)(=O)c2cc(Cl)c3oc4c(c3c2)CNCC4)cc1 [Example 141] | 3.1
26 | CC(C)(O)c1ccccc1S(=O)(=O)c1cc(Cl)c2oc3c(c2c1)CNCC3 [Example 142] | 25

Row | SMILES | Ki [nM]
27 | O=S(=O)(c1ccc2[nH]ccc2c1)c1cc(Cl)c2oc3c(c2c1)CNCC3 [Example 143] | 0.13
28 | CS(=O)(=O)N1CCc2oc3c(Cl)cc(S(=O)(=O)c4ccccc4)cc3c2C1 [Example 144] | 492
29 | CN(C)CC(=O)N1CCc2oc3c(Cl)cc(S(=O)(=O)c4ccccc4)cc3c2C1 [Example 145] | 66
30 | O=S(=O)(c1ccccc1)c1cc(Cl)c2oc3c(c2c1)CN(CCO)CC3 [Example 146] | 1.6
31 | CC(C)(O)CN1CCc2oc3c(Cl)cc(S(=O)(=O)c4ccccc4)cc3c2C1 [Example 147] | 1.2
32 | CN(C)C(=O)CN1CCc2oc3c(Cl)cc(S(=O)(=O)c4ccccc4)cc3c2C1 [Example 148] | 45
33 | COCCN1CCc2oc3c(Cl)cc(S(=O)(=O)c4ccccc4)cc3c2C1 [Example 149] | 1.6
34 | O=S(=O)(c1ccccc1)c1cc(Cl)c2oc3c(c2c1)CN(C1COC1)CC3 [Example 150] | 76
35 | CC(O)CN1CCc2oc3c(Cl)cc(S(=O)(=O)c4ccccc4)cc3c2C1 (centres unmarked) [Example 151] | 1.7
36 | CC(CO)N1CCc2oc3c(Cl)cc(S(=O)(=O)c4ccccc4)cc3c2C1 (centres unmarked) [Example 152] | 3.4
37 | O=S(=O)(c1cc(Cl)c2oc3c(c2c1)CNCC3)c1ccccc1C(F)(F)F [Example 153] | 6.1
38 | O=S(=O)(c1ccc(C2CCOC2)cc1)c1cc(Cl)c2oc3c(c2c1)CNCC3 (centres unmarked) [Example 154] | 5.6
39 | CC(=O)N1CCc2oc3c(Cl)cc(S(=O)(=O)c4cn(C)c5ccccc45)cc3c2C1 [Example 155] | 167
40 | O=S(=O)(c1ccc2c(c1)COC2)c1cc(Cl)c2oc3c(c2c1)CNCC3 [Example 156] | 7.6
41 | C=C(C)c1cccc(S(=O)(=O)c2cc(Cl)c3oc4c(c3c2)CNCC4)c1 [Example 157] | 0.66
42 | COc1cc(S(=O)(=O)c2ccc3c(c2)CCOC3)cc2c3c(oc12)CCNC3 [Example 158] | 0.48
43 | COc1cc(S(=O)(=O)c2ccccc2CO)cc2c3c(oc12)CCNC3 [Example 159] | 1.5
44 | COc1cc(S(=O)(=O)c2cccc(OC(F)F)c2)cc2c3c(oc12)CCNC3 [Example 160] | 0.11
45 | COc1cc(S(=O)(=O)c2ccc(F)c(F)c2)cc2c3c(oc12)CCNC3 [Example 161] | 0.32
46 | COc1cc(S(=O)(=O)c2ccc(C(F)(F)F)cc2)cc2c3c(oc12)CCNC3 [Example 162] | 0.49
47 | COc1cc(S(=O)(=O)c2ccccc2F)cc2c3c(oc12)CCNC3 [Example 163] | 0.19
48 | COc1cc(S(=O)(=O)c2ccc(OC(F)F)cc2)cc2c3c(oc12)CCNC3 [Example 164] | 0.4
49 | COc1cc(S(=O)(=O)c2ccc(OC(F)(F)F)cc2)cc2c3c(oc12)CCNC3 [Example 165] | 1.9
50 | COc1cc(S(=O)(=O)c2cccc(F)c2)cc2c3c(oc12)CCNC3 [Example 166] | 0.2
51 | COc1cc(S(=O)(=O)c2cccc(C(F)(F)F)c2)cc2c3c(oc12)CCNC3 [Example 167] | 0.13
52 | COc1cc(S(=O)(=O)c2cccc(OC(F)(F)F)c2)cc2c3c(oc12)CCNC3 [Example 168] | 0.19

Row | SMILES | Ki [nM]
53 | COc1cc(S(=O)(=O)c2ccc(F)cc2)cc2c3c(oc12)CCNC3 [Example 169] | 0.75
54 | COc1cc(S(=O)(=O)c2ccc(C(C)O)cc2)cc2c3c(oc12)CCNC3 (centres unmarked) [Example 170] | 2.9
55 | COc1cc(S(=O)(=O)c2ccc([C@H](C)O)cc2)cc2c3c(oc12)CCNC3 [Example 171] | 8.6
56 | COc1cc(S(=O)(=O)c2ccc([C@@H](C)O)cc2)cc2c3c(oc12)CCNC3 [Example 172] | 1.9
57 | COc1cc(S(=O)(=O)c2cccc(C(C)O)c2)cc2c3c(oc12)CCNC3 (centres unmarked) [Example 173] | 0.6
58 | COc1cc(S(=O)(=O)c2cccc([C@@H](C)O)c2)cc2c3c(oc12)CCNC3 [Example 174] | 0.69
59 | COc1cc(S(=O)(=O)c2cccc([C@H](C)O)c2)cc2c3c(oc12)CCNC3 [Example 175] | 1.2
60 | COc1cc(S(=O)(=O)c2ccc(C(C)(C)O)cc2)cc2c3c(oc12)CCNC3 [Example 176] | 0.74
61 | COc1cc(S(=O)(=O)c2cccc(C(C)(C)O)c2)cc2c3c(oc12)CCNC3 [Example 177] | 0.35
62 | COc1cc(S(=O)(=O)c2cccc(C(O)C(F)(F)F)c2)cc2c3c(oc12)CCNC3 (centres unmarked) [Example 178] | 0.32
63 | COc1cc(S(=O)(=O)c2ccc(C3CCOC3)cc2)cc2c3c(oc12)CCNC3 (centres unmarked) [Example 180] | 2.2
64 | COc1cc(S(=O)(=O)c2cn(C)c3ccccc23)cc2c3c(oc12)CCNC3 [Example 183] | 0.16
65 | COc1cc(S(=O)(=O)c2ccc3sccc3c2)cc2c3c(oc12)CCNC3 [Example 184] | 0.16
66 | COc1cc(S(=O)(=O)c2csc3ccccc23)cc2c3c(oc12)CCNC3 [Example 185] | 0.1
67 | COc1cc(S(=O)(=O)c2cc(F)cc(F)c2)cc2c3c(oc12)CCNC3 [Example 186] | 0.33
68 | COc1cc(S(=O)(=O)c2ccsc2)cc2c3c(oc12)CCNC3 [Example 187] | 0.27
69 | COc1cc(S(=O)(=O)c2cc(F)cc(Cl)c2)cc2c3c(oc12)CCNC3 [Example 188] | 0.11
70 | COc1cc(S(=O)(=O)c2ccc(Cl)cc2)cc2c3c(oc12)CCNC3 [Example 189] | 0.28
71 | COc1cc(S(=O)(=O)c2cccc(Cl)c2)cc2c3c(oc12)CCNC3 [Example 190] | 0.05
72 | COc1cc(S(=O)(=O)c2cc(Cl)cc(Cl)c2)cc2c3c(oc12)CCNC3 [Example 191] | 0.23
73 | COc1cc(S(=O)(=O)c2cccs2)cc2c3c(oc12)CCNC3 [Example 192] | 0.17
74 | COc1cc(S(=O)(=O)c2ccc3c(c2)COC3)cc2c3c(oc12)CCNC3 [Example 193] | 0.8
75 | Cc1cc(S(=O)(=O)c2ccccc2F)cc2c3c(oc12)CCNC3 [Example 194] | 0.39
76 | Cc1cc(S(=O)(=O)c2cccc(Cl)c2)cc2c3c(oc12)CCNC3 [Example 195] | 0.28
77 | Cc1cc(S(=O)(=O)c2ccc(Cl)cc2)cc2c3c(oc12)CCNC3 [Example 196] | 1.1
